Read-outs that look alike come from different tables or passages of the source.
Legend:
[1] = test system: phosphorylated AKT Ser473 (pAKT S473), mTORC2 activity, PC3 cells; test: mTOR target engagement assay, immunofluorescent cell-based, pAKT S473 readout (mTORC2 activity); details: compound treatment ninety minutes at 37° C.
How it was run: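 After blocking, cells were stained overnight at 4 °C with anti-pAKT S473 antibody, then a fluorescent secondary; inhibition was read as reduced fluorescence intensity.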

[2] = test system: phosphorylated 4E-BP1 Thr37/46 (p4E-BP1 Thr37/46), mTORC1 activity, PC3 cells; test: mTOR target engagement assay, immunofluorescent cell-based, p4E-BP1 Thr37/46 readout (mTORC1 activity); details: compound treatment ninety minutes at 37° C., read-out: p4E-BP1 Thr37/46 IC50
Description: The target engagement of mTOR kinase inhibitors was evaluated using an immunofluorescent cell-based assay. In this assay, inhibition of mTORC1 activity was measured by the reduction in the level of phosphorylated 4E-BP1^[…] (p4E-BP1 Thr37/46), and inhibition of mTORC2 activity was measured by the reduction of phosphorylated AKT^Ser473 (pAKT S473).
PC3 cells (prostate tumor cell-line that contains a mutation in the tumor suppressor PTEN, that promotes the phosphorylation and activation of AKT and 4E-BP1) were used in the immunofluorescence assay. PC3 cells were seeded on 384 well plates (black clear bottom, Matrix #4332) overnight. PC3 cells were then treated with 40 μl of the serially diluted test compounds (in 5% fetal bovine serum, F12 medium containing 0.25% DMSO) for ninety minutes at 37° C. The test compound solution was removed, and the plates were washed gently two times with 25 μl phosphate buffered saline (PBS). The cells were fixed by adding 25 μl of Prefer reagent (from Anatech LTD, Cat#414, a glyoxal fixative for fixing proteins within a cell) for sixty minutes followed by three washes with PBS. 5% Goat serum in PBS/0.3% Triton was used to block non-specific binding (60 minutes).
The primary antibodies targeting pAKT S473 and p4E-BP1 Thr37/46 were diluted into PBS/0.3% Triton and incubated with the cells overnight at 4° C. The antibodies targeting pAKTS473 (Cat#4085, Cell signaling) and p4E-BP1 Thr37/46 (Cat#2855, Cell signaling) were used at a 1:100 dilution. Plates were washed three times with PBS/0.1% Tween 20 before adding the secondary antibody at a 1:200 dilution. (goat anti-rabbit containing a fluorescent label, Alexa Fluor 488, Cat#A11008, Invitrogen) in PBS/0.3% Triton for 60 minutes.
Finally, the plates were washed three times with PBS/0.1% Tween 20 and the fluorescent intensity was read using an Analyst HT from Molecular Devices. The fluorescent intensity values from the serially diluted compound treatment group were analyzed using the Xlfit 4 program ([…]) (Formula 205: Y=Bottom+(Top-Bottom)/(1+(IC50/X)^Hillslope) to generate the IC50 value. Where Top is the maximum signal without Compound (+DMSO only) and Bottom represents maximum inhibition. Y is the fluorescence at some compound concentration. The control used to determine the fluorescent intensities for 100% pAKT S473 or 100% phosphorylated p4E-BP1 Thr37/46 were measured from untreated wells that contained only DMSO, instead of test compound.

SMILES | IC50 ([1]; Homo sapiens, PC-3, PC3 cells) | IC50 ([2]; Homo sapiens, PC-3, PC3 cells) | IC50 ([1]; PC3 cells) | IC50 ([2]; PC3 cells)
CC(=O)c1c([C@@H]2C[C@H]3CC[C@@H](C2)N3C(=O)c2nnc[nH]2)nc2c(-c3ccc(-c4nccs4)nc3)cnn2c1N [Compound 1.1.37, 1-(5-((1R,3s,5S)-8-(4H-1,2,4-triazole-3-carbonyl)-8-azabicyclo[3.2.1]octan-3-yl)-7-amino-3-(6-(thiazol-2-yl)pyridin-3-yl)pyrazolo[1,5-a]pyrimidin-6-yl)ethanone] | 1 to 100 nM | 1 to 100 nM |  | 
CC(=O)c1c([C@@H]2C[C@H]3CC[C@@H](C2)N3C(=O)c2nnc[nH]2)nc2c(-c3ccc4ccc(F)cc4c3)cnn2c1N [Compound 1.1.38, 1-(5-((1R,3s,5S)-8-(4H-1,2,4-triazole-3-carbonyl)-8-azabicyclo[3.2.1]octan-3-yl)-7-amino-3-(7-fluoronaphthalen-2-yl)pyrazolo[1,5-a]pyrimidin-6-yl)ethanone] |  |  | 100 to 1000 nM | 1 to 100 nM
CNC(=O)N1[C@@H]2CC[C@H]1C[C@H](c1nc3c(-c4ccc(-c5ccccc5)nc4)cnn3c(N)c1C(C)=O)C2 [Compound 1.1.39, (1R,3s,5S)-3-(6-acetyl-7-amino-3-(6-phenylpyridin-3-yl)pyrazolo[1,5-a]pyrimidin-5-yl)-N-methyl-8-azabicyclo[3.2.1]octane-8-carboxamide] | 1 to 100 nM | 1 to 100 nM |  | 
CC(=O)c1c([C@@H]2C[C@H]3CC[C@@H](C2)N3C(=O)c2nnc(O)[nH]2)nc2c(-c3ccc(-c4ccccc4)nc3)cnn2c1N [Compound 1.1.40, 1-(7-amino-5-((1R,3s,5S)-8-(5-hydroxy-4H-1,2,4-triazole-3-carbonyl)-8-azabicyclo[3.2.1]octan-3-yl)-3-(6-phenylpyridin-3-yl)pyrazolo[1,5-a]pyrimidin-6-yl)ethanone] | 100 to 1000 nM | 100 to 1000 nM |  | 
CC(=O)c1c([C@@H]2C[C@H]3CC[C@@H](C2)N3C(=O)c2cc[nH]c2)nc2c(-c3ccc(-c4ccccc4)nc3)cnn2c1N [Compound 1.1.41, 1-(5-((1R,3s,5S)-8-(1H-pyrrole-3-carbonyl)-8-azabicyclo[3.2.1]octan-3-yl)-7-amino-3-(6-phenylpyridin-3-yl)pyrazolo[1,5-a]pyrimidin-6-yl)ethanone] | 1 to 100 nM | 1 to 100 nM |  | 
CC(=O)c1c([C@@H]2C[C@H]3CC[C@@H](C2)N3S(=O)(=O)c2nnc[nH]2)nc2c(-c3ccc(-c4ccccc4)nc3)cnn2c1N [Compound 1.1.42, 1-(5-((1R,3s,5S)-8-(4H-1,2,4-triazol-3-ylsulfonyl)-8-azabicyclo[3.2.1]octan-3-yl)-7-amino-3-(6-phenylpyridin-3-yl)pyrazolo[1,5-a]pyrimidin-6-yl)ethanone] | 100 to 1000 nM | 100 to 1000 nM |  | 
CC(=O)c1c([C@@H]2C[C@H]3CC[C@@H](C2)N3C(=O)c2ccc[nH]2)nc2c(-c3ccc(-c4ccccc4)nc3)cnn2c1N [Compound 1.1.43, 1-(5-((1R,3s,5S)-8-(1H-pyrrole-2-carbonyl)-8-azabicyclo[3.2.1]octan-3-yl)-7-amino-3-(6-phenylpyridin-3-yl)pyrazolo[1,5-a]pyrimidin-6-yl)ethanone] | 100 to 1000 nM | 100 to 1000 nM |  | 
COCc1cc(-c2ccc(-c3cnn4c(N)c(C(C)=O)c([C@@H]5C[C@H]6CC[C@@H](C5)N6C(=O)CO)nc34)cn2)ccc1OC [Compound 1.1.44, 1-((1R,3s,5S)-3-(6-acetyl-7-amino-3-(6-(4-methoxy-3-(methoxymethyl)phenyl)pyridin-3-yl)pyrazolo[1,5-a]pyrimidin-5-yl)-8-azabicyclo[3.2.1]octan-8-yl)-2-hydroxyethanone] | 1 to 100 nM | 100 to 1000 nM |  | 
COCc1cc(-c2ccc(-c3cnn4c(N)c(C(C)=O)c([C@@H]5C[C@H]6CC[C@@H](C5)N6C(=O)c5nnc[nH]5)nc34)cn2)ccc1OC [Compound 1.1.45, 1-(5-((1R,3s,5S)-8-(4H-1,2,4-triazole-3-carbonyl)-8-azabicyclo[3.2.1]octan-3-yl)-7-amino-3-(6-(4-methoxy-3-(methoxymethyl)phenyl)pyridin-3-yl)pyrazolo[1,5-a]pyrimidin-6-yl)ethanone] | 1 to 100 nM | 1 to 100 nM |  | 
COc1ccc(-c2ccc(-c3cnn4c(N)c(C(C)=O)c([C@@H]5C[C@H]6CC[C@@H](C5)N6C(=O)c5nnc[nH]5)nc34)cn2)cc1 [Compound 1.1.46, 1-(5-((1R,3s,5S)-8-(4H-1,2,4-triazole-3-carbonyl)-8-azabicyclo[3.2.1]octan-3-yl)-7-amino-3-(6-(4-methoxyphenyl)pyridin-3-yl)pyrazolo[1,5-a]pyrimidin-6-yl)ethanone] | 1 to 100 nM | 1 to 100 nM |  | 
COc1ccc(-c2ccc(-c3cnn4c(N)c(C(C)=O)c([C@@H]5C[C@H]6CC[C@@H](C5)N6C(=O)c5nnc[nH]5)nc34)cn2)c(F)c1 [Compound 1.1.47, 1-(5-((1R,3s,5S)-8-(4H-1,2,4-triazole-3-carbonyl)-8-azabicyclo[3.2.1]octan-3-yl)-7-amino-3-(6-(2-fluoro-4-methoxyphenyl)pyridin-3-yl)pyrazolo[1,5-a]pyrimidin-6-yl)ethanone] | 1 to 100 nM | 1 to 100 nM |  | 
CC(=O)c1c([C@@H]2C[C@H]3CC[C@@H](C2)N3C(=O)C2(O)CC2)nc2c(-c3ccc(-c4ccccc4)nc3)cnn2c1N [Compound 1.1.48, 1-(7-amino-5-((1R,3s,5S)-8-(1-hydroxycyclopropanecarbonyl)-8-azabicyclo[3.2.1]octan-3-yl)-3-(6-phenylpyridin-3-yl)pyrazolo[1,5-a]pyrimidin-6-yl)ethanone] | 100 to 1000 nM | 100 to 1000 nM |  | 
CC(=O)c1c([C@@H]2C[C@H]3CC[C@@H](C2)N3S(=O)(=O)O)nc2c(-c3ccc(-c4ccccc4)nc3)cnn2c1N [Compound 1.1.49, (1R,3s,5S)-3-(6-acetyl-7-amino-3-(6-phenylpyridin-3-yl)pyrazolo[1,5-a]pyrimidin-5-yl)-8-azabicyclo[3.2.1]octane-8-sulfonic acid] | 1000 to 10000 nM | > 10000 nM |  | 
CC(=O)c1c([C@@H]2C[C@H]3CC[C@@H](C2)N3C(=O)c2cncc(O)c2)nc2c(-c3ccc(-c4ccccc4)nc3)cnn2c1N [Compound 1.1.50, 1-(7-amino-5-((1R,3s,5S)-8-(5-hydroxynicotinoyl)-8-azabicyclo[3.2.1]octan-3-yl)-3-(6-phenylpyridin-3-yl)pyrazolo[1,5-a]pyrimidin-6-yl)ethanone] | 100 to 1000 nM | 100 to 1000 nM |  | 
CC(=O)c1c([C@@H]2C[C@H]3CC[C@@H](C2)N3C(=O)c2cnccc2O)nc2c(-c3ccc(-c4ccccc4)nc3)cnn2c1N [Compound 1.1.51, 1-(7-amino-5-((1R,3s,5S)-8-(4-hydroxynicotinoyl)-8-azabicyclo[3.2.1]octan-3-yl)-3-(6-phenylpyridin-3-yl)pyrazolo[1,5-a]pyrimidin-6-yl)ethanone] | 100 to 1000 nM | 100 to 1000 nM |  | 
COCc1cnc(-c2ccc(-c3cnn4c(N)c(C(C)=O)c([C@@H]5C[C@H]6CC[C@@H](C5)N6C(=O)c5nnc[nH]5)nc34)cn2)s1 [Compound 1.1.52, 1-(5-((1R,3s,5S)-8-(4H-1,2,4-triazole-3-carbonyl)-8-azabicyclo[3.2.1]octan-3-yl)-7-amino-3-(6-(5-(methoxymethyl)thiazol-2-yl)pyridin-3-yl)pyrazolo[1,5-a]pyrimidin-6-yl)ethanone] | 100 to 1000 nM | 100 to 1000 nM |  | 

From patent publication US9227971B2, “Pyrazolo[1,5-a]pyrimidine compounds as mTOR inhibitors” (Merck Sharp & Dohme Corp., priority 2010, dated 2016)
